These results are taken from PubChem BioAssay AID2060904 (Molecular Pharmacology Branch, DTP, NCI, 2025).

SMILES strings stand for the structures.

The assay concerns 349418-098-R-PDC complex spheroid viability. Description: Anticancer human tumor 349418-098-R-PDC patient-derived lung adenocarcinoma cell line growth inhibition [RAS]. As to conditions: for viability, T/C: stronger effect = lower value. The gist of the method:
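Multi-cell-type spheroids: tumor cells plus HUVEC endothelial cells and mesenchymal stem cells. RAS-pathway inhibitors were combined with targeted agents, each dosed in half-log steps down from clinical Cmax, or from 10 microM when Cmax was unknown.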

Setting [1] is: curve of first compound, second compound 0.0316 µM.
[2] abbreviates: curve of first compound, second compound 0.1 µM.
[3] abbreviates: curve of first compound, second compound 0.316 µM.
The mark [4] stands for this setting: curve of first compound, second compound 1 µM.
Setting [5] is: second compound 0.0316 µM, first compound 0.0316 µM.
Setting [6] is: second compound 0.0316 µM, first compound 0.1 µM.
[7] abbreviates: second compound 0.0316 µM, first compound 0.316 µM.
Where [8] appears, read: second compound 0.0316 µM, first compound 1 µM.
The mark [9] stands for this setting: second compound 0.0316 µM, first compound 3.16 µM.
Setting [10] is: second compound 0.0316 µM, first compound 10 µM.
Setting [11] is: second compound 0.1 µM, first compound 0.0316 µM.
Where [12] appears, read: second compound 0.1 µM, first compound 0.1 µM.
Where [13] appears, read: second compound 0.1 µM, first compound 0.316 µM.
Where [14] appears, read: second compound 0.1 µM, first compound 1 µM.
[15] abbreviates: second compound 0.1 µM, first compound 3.16 µM.
Setting [16] is: second compound 0.1 µM, first compound 10 µM.
Setting [17] is: second compound 0.316 µM, first compound 0.0316 µM.
The mark [18] stands for this setting: second compound 0.316 µM, first compound 0.1 µM.
The mark [19] stands for this setting: second compound 0.316 µM, first compound 0.316 µM.
Where [20] appears, read: second compound 0.316 µM, first compound 1 µM.
The mark [21] stands for this setting: second compound 0.316 µM, first compound 3.16 µM.
[22] abbreviates: second compound 0.316 µM, first compound 10 µM.
Setting [23] is: second compound 1 µM, first compound 0.0316 µM.
Setting [24] is: second compound 1 µM, first compound 0.1 µM.
Where [25] appears, read: second compound 1 µM, first compound 0.316 µM.
Where [26] appears, read: second compound 1 µM, first compound 1 µM.
[27] abbreviates: second compound 1 µM, first compound 3.16 µM.
[28] abbreviates: second compound 1 µM, first compound 10 µM.
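Note: spheroids exposed to compound for seven days before viability readout.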

In the case of `NC1c2ccccc2OC12CCN(c1cnc3c(N4CCCc5ncccc54)n[nH]c3n1)CC2` (stereo unspecified) + C#Cc1c(F)ccc2cc(O)cc(-c3ncc4c(N5CC6CCC(C5)N6)nc(OCC56CCCN5CC(F)C6)nc4c3F)c12, the IC50 reads like this: under setting [1], more than 10 µM; under setting [2], 9.34 µM; under setting [3], more than 10 µM; under setting [4], more than 10 µM; (curve of first compound, second compound 3.16 µM) more than 10 µM; (curve of first compound, second compound 10 µM) more than 10 µM. The viability, T/C was 113% under setting [5]; 108% under setting [6]; 96.7% under setting [7]; 79.7% under setting [8]; 90.1% under setting [9]; 63% under setting [10]. In addition, the viability, T/C was 86.7% under setting [11]; 86.2% under setting [12]; 94.7% under setting [13]; 79.1% under setting [14]; 94.3% under setting [15]; 47.6% under setting [16]. Besides, the viability, T/C is, setting by setting: under setting [17], 94.2%; under setting [18], 120%; under setting [19], 105%; under setting [20], 76.2%; under setting [21], 83.5%; under setting [22], 58.4%. In addition, the viability, T/C reads like this: under setting [23], 95.9%; under setting [24], 92.4%; under setting [25], 87.5%; under setting [26], 99.6%; under setting [27], 104%; under setting [28], 54.2%. Also, the viability, T/C reads like this: (second compound 3.16 µM, first compound 0.0316 µM) 71%; (second compound 3.16 µM, first compound 0.1 µM) 90.4%; (second compound 3.16 µM, first compound 0.316 µM) 90.1%; (second compound 3.16 µM, first compound 1 µM) 84.3%; (second compound 3.16 µM, first compound 3.16 µM) 84.9%; (second compound 3.16 µM, first compound 10 µM) 77%. Besides, the viability, T/C reads like this: (second compound 10 µM, first compound 0.0316 µM) 85.3%; (second compound 10 µM, first compound 0.1 µM) 22.6%; (second compound 10 µM, first compound 0.316 µM) 67.2%; (second compound 10 µM, first compound 1 µM) 82.7%; (second compound 10 µM, first compound 3.16 µM) 65.3%; (second compound 10 µM, first compound 10 µM) 67.2%.

For `C[C@@H](NC(=O)c1ncnc(N)c1Cl)c1ncc(C(=O)Nc2cc(C(F)(F)F)c(Cl)cn2)s1`, the viability, T/C runs as follows: (compound 0.1 µM) 109% [middle of 4 runs]; (compound 0.316 µM) 91.3% [middle of 4 runs]; (compound 1 µM) 64.9% [middle of 4 runs]; (compound 10 µM) 32% [middle of 4 runs]. Where the note is “curve of compound”, the IC50 was 2.13 µM [middle of 4 runs].

Take `CCn1c(-c2cc(N3CCN(C)CC3)cnc2C(C)OC)c2c3cc(ccc31)-c1csc(n1)CC(NC(=O)C1CC1C)C(=O)N1CCCC(N1)C(=O)OCC(C)(C)C2` (stereo unspecified): the viability, T/C (compound 0.000949 µM) was 108% [middle of 8 runs]; the viability, T/C (compound 0.003 µM) is 103% [middle of 8 runs]; the viability, T/C (compound 0.03 µM) is 105% [middle of 8 runs]; the viability, T/C (compound 0.0949 µM) was 111% [middle of 8 runs]. Further, the IC50 (compound alone, run of 05/20/2024) is more than 0.3 µM.

On to `NC1c2ccccc2OC12CCN(c1cnc3c(N4CCCc5ncccc54)n[nH]c3n1)CC2` (stereo unspecified) + C=CC(=O)N1CCN(c2nc(OCC3CCCN3C)nc3c(F)c(-c4nc(N)cc(C)c4C(F)(F)F)c(Cl)cc23)C(C)C1, for which the IC50 runs as follows: (curve of first compound, second compound 0.00316 µM) more than 10 µM; (curve of first compound, second compound 0.01 µM) more than 10 µM; under setting [1], more than 10 µM; under setting [2], more than 10 µM; under setting [3], more than 10 µM; under setting [4], more than 10 µM. In addition, the viability, T/C is, setting by setting: (second compound 0.00316 µM, first compound 0.0316 µM) 106%; (second compound 0.00316 µM, first compound 0.1 µM) 85.4%; (second compound 0.00316 µM, first compound 0.316 µM) 93.2%; (second compound 0.00316 µM, first compound 1 µM) 75.5%; (second compound 0.00316 µM, first compound 3.16 µM) 102%; (second compound 0.00316 µM, first compound 10 µM) 55.8%. In addition, the viability, T/C was 113% (second compound 0.01 µM, first compound 0.0316 µM); 91.4% (second compound 0.01 µM, first compound 0.1 µM); 110% (second compound 0.01 µM, first compound 0.316 µM); 72.9% (second compound 0.01 µM, first compound 1 µM); 93.9% (second compound 0.01 µM, first compound 3.16 µM); 68.5% (second compound 0.01 µM, first compound 10 µM). The viability, T/C is, setting by setting: under setting [5], 114%; under setting [6], 100%; under setting [7], 67%; under setting [8], 86%; under setting [9], 82.3%; under setting [10], 71.1%. For the same compound, the viability, T/C by setting is: under setting [11], 100%; under setting [12], 82.5%; under setting [13], 83.1%; under setting [14], 101%; under setting [15], 119%; under setting [16], 76.7%. Besides, the viability, T/C is, setting by setting: under setting [17], 80%; under setting [18], 92.7%; under setting [19], 92.1%; under setting [20], 91.1%; under setting [21], 100%; under setting [22], 64%. The viability, T/C under setting [23] was 64.5%; the viability, T/C under setting [24] is 89.8%; the viability, T/C under setting [25] was 74%; the viability, T/C under setting [26] is 83.7%; the viability, T/C under setting [27] was 71.2%; the viability, T/C under setting [28] is 69.1%.

Consider `CCc1c2c(nc3ccc(O)cc13)-c1cc3c(c(=O)n1C2)COC(=O)[C@]3(O)CC`, for which the viability, T/C by setting is: (compound 0.000949 µM) 82% [middle of 4 runs]; (compound 0.003 µM) 39.4% [middle of 4 runs]; (compound 0.00949 µM) 17.2% [middle of 4 runs]; (compound 0.03 µM) 6.46% [middle of 4 runs]; (compound 0.0949 µM) 3.27% [middle of 4 runs]; (compound 0.3 µM) 2.43% [middle of 4 runs]. Moreover, the IC50 (curve of compound) was 2.32 nM [middle of 4 runs].

What is called IC50 is the concentration needed to halve the response being measured. As a reminder, the viability, T/C is the ratio of treated to control.
